The values that follow come from the Kinase Knowledgebase extract (Sharma et al. 2016).

Values after ≈ are worked out from the molar mass of the structure shown. Values joined by “and” are separate entries in the source; they are usually repeats but may differ in a detail not shown here. Equal values may be shown once.

In the experiment the target is EGFR (UniProt P00533).
Sequence of EGFR (P00533 whole entry, looked up): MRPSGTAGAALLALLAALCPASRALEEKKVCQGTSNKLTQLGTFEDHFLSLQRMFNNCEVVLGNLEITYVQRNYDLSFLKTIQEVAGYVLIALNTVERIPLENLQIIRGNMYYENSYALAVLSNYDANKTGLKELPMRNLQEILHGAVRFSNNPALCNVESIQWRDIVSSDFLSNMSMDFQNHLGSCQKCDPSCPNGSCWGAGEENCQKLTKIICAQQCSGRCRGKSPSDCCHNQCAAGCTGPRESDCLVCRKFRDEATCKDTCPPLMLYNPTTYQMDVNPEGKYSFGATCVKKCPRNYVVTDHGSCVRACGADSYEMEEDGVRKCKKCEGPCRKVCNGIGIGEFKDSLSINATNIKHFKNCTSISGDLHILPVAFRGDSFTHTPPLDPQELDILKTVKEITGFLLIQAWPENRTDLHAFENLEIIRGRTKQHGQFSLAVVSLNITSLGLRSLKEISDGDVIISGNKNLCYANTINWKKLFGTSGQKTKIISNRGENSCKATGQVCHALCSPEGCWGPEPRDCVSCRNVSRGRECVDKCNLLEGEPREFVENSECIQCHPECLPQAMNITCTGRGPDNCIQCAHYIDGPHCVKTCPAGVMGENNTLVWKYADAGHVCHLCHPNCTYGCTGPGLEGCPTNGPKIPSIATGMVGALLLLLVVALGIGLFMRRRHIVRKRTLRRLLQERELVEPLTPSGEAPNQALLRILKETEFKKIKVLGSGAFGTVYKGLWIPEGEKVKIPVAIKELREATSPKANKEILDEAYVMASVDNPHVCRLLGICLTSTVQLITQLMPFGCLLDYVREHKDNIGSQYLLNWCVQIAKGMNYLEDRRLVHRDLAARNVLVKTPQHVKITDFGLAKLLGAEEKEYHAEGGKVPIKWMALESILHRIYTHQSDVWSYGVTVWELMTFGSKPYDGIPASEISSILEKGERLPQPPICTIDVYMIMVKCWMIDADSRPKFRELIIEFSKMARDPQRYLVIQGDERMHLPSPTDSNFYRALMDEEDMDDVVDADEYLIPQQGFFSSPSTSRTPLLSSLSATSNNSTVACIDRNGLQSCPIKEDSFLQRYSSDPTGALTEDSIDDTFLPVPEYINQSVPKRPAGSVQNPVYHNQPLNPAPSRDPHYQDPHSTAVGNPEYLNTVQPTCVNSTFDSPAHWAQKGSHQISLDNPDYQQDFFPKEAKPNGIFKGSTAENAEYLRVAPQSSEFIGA
In turn, `CCN(CC)CCCCNc1cc(-c2ncnc(Nc3cc(OC)c(OC)c(OC)c3)n2)ccn1` displayed an IC50 above 4.5 µg/mL.
In the case of `CN(c1cccc(Cl)c1)c1ncnc(Nc2cccc(CC(=O)O)c2)n1` it was below 0.4 µg/mL; in that of `O=c1[nH]c2ccccc2n1-c1ncnc(Nc2ccc(F)c(Cl)c2)n1`, above 4.5 µg/mL; in that of `N#Cc1ccc(Nc2ncnc(-c3cccs3)n2)cc1`, above 4.5 µg/mL.
As for `CN(c1cccc(Cl)c1)c1ncnc(Nc2ncccn2)n1`, the figure is below 0.4 µg/mL; as for `CN(c1cccc(Cl)c1)c1ncnc(Nc2ccc3c(cnn3C)c2)n1`, below 0.4 µg/mL; as for `COc1ccc(Nc2ncnc(Nc3ccc(Br)cc3F)n2)cc1OC`, 2.4 to 3.5 µg/mL (≈ 5.71 to 8.33 µM).
`COc1cc(Nc2ncnc(Nc3cccc(C)c3)n2)cc(OC)c1OC` had an IC50 below 0.4 µg/mL.
As for `COc1cc(Nc2ncnc(Nc3ccc(F)c(Cl)c3)n2)cc(OC)c1OC`, the figure is below 0.4 µg/mL.
As for `COc1cc(Nc2ncnc(N3CCOCC3)n2)cc(OC)c1OC`, the figure is above 4.5 µg/mL.
In the case of `FC(F)C(F)(F)Oc1cccc(Nc2ncnc(-c3ccnc(N4CCCCC4)c3)n2)c1` it was above 4.5 µg/mL; in that of `COc1cc(Nc2ncnc(-n3c(NCCO)nc4ccccc43)n2)cc(OC)c1OC`, above 4.5 µg/mL.
Consider `COc1cc(Nc2ncnc(-c3cccnc3NCc3ccccn3)n2)cc(OC)c1OC`, for which the IC50 is above 4.5 µg/mL.
With `COc1cc(Nc2ncnc(Nc3cc(F)ccc3F)n2)cc(OC)c1OC`, the IC50 lay in the range of 0.4 to 2.4 µg/mL (≈ 1.03 to 6.16 µM).
In the case of `COc1cc(Nc2ncnc(Nc3ccc4nn(C)cc4c3)n2)cc(OC)c1OC` it was 0.4 to 2.4 µg/mL (≈ 0.982 to 5.89 µM); in that of `COc1cc(Nc2ncnc(-c3cccs3)n2)cc(OC)c1OC`, above 4.5 µg/mL; in that of `CCN(CC)CCOc1ccc(Nc2ncnc(-n3c(N)nc4ccccc43)n2)cc1OC`, above 4.5 µg/mL.
In the case of `NC(=O)c1ccc(Nc2ncnc(-c3cccs3)n2)cc1` it was above 4.5 µg/mL.
As for `c1coc(-c2cc(Nc3ncnc(Nc4nc[nH]n4)n3)n[nH]2)c1`, the figure is 0.4 to 2.4 µg/mL (≈ 1.29 to 7.73 µM); as for `COc1cc(Nc2ncnc(N3CCN(C)CC3)n2)cc(OC)c1OC`, above 4.5 µg/mL.
With `COc1cc(Nc2ncnc(-n3c(Nc4ccccc4C)nc4ccccc43)n2)cc(OC)c1OC`, the IC50 was 3.5 to 4.5 µg/mL (≈ 7.24 to 9.31 µM).
`COc1cc(Nc2ncnc(Nc3cc(Cl)c(O)c(Cl)c3)n2)cc(OC)c1OC` returned an IC50 below 0.4 µg/mL.
In the case of `CCOC(=O)c1cccc(Nc2ncnc(Nc3cc(-c4ccc(C(=O)OC)cc4)n[nH]3)n2)c1` it was above 4.5 µg/mL; in that of `COc1cc(Nc2ncnc(-c3cccnc3Nc3ccc(C(C)=O)cc3)n2)cc(OC)c1OC`, above 4.5 µg/mL.
In the case of `COc1cc(Nc2ncnc(-n3c(NC4CCCc5ccccc54)nc4ccccc43)n2)cc(OC)c1OC` (stereo not drawn) it was 3.5 to 4.5 µg/mL and 2.4 to 3.5 µg/mL; in that of `COc1cc(Nc2ncnc(N3CCc4ccccc4C3)n2)cc(OC)c1OC`, above 4.5 µg/mL.
As for `Clc1ncnc(Nc2ccc(OCc3ccccc3)cc2)n1`, the figure is above 4.5 µg/mL; as for `COc1ccc([C@H](C)Nc2nc3ccccc3n2-c2ncnc(Nc3cc(OC)c(OC)c(OC)c3)n2)cc1`, above 4.5 µg/mL; as for `CN1CCN(Cc2cccc(Nc3ncnc(Nc4ccc5c(cnn5Cc5ccccc5)c4)n3)c2)CC1`, above 4.5 µg/mL.
As for `C=CCNC(=O)c1ccc(-c2cc(Nc3ncnc(Nc4cc(OC)c(OC)c(OC)c4)n3)[nH]n2)cc1`, the IC50 was above 4.5 µg/mL.
In the case of `NC(=O)c1cccc(Nc2ncnc(-c3ccccc3)n2)c1` it was above 4.5 µg/mL; in that of `COc1cc(Nc2ncnc(-n3ccc4cc(OCc5ccccc5)ccc43)n2)cc(OC)c1OC`, above 4.5 µg/mL; in that of `COc1cc(Nc2ncnc(N(CCC(C)C)c3ccc(Cl)cc3)n2)cc(OC)c1OC`, below 0.4 µg/mL.
Regarding `NC(=O)c1cccc(Nc2ncnc(-n3c(=O)[nH]c4ccccc43)n2)c1`, the IC50 is above 4.5 µg/mL.
As for `Cc1cccc(Nc2ncnc(Nc3cc(-c4ccccc4)n[nH]3)n2)c1`, the figure is below 0.4 µg/mL; as for `COc1ncnc(Nc2cc(OC)c(OC)c(OC)c2)n1`, above 4.5 µg/mL.
On to `COc1cc(Nc2ncnc(-c3cccnc3NCc3ccccc3F)n2)cc(OC)c1OC`, for which the IC50 was above 4.5 µg/mL.
In the case of `O=c1[nH]c2ccccc2n1-c1ncnc(Nc2cccc(Cl)c2)n1` it was 2.4 to 3.5 µg/mL (≈ 7.08 to 10.3 µM).
As for `CN(c1cccc(Cl)c1)c1ncnc(Nc2ccc3c(cnn3Cc3ccccc3)c2)n1`, the figure is 0.4 to 2.4 µg/mL (≈ 0.905 to 5.43 µM).
In the case of `CCOC(=O)Cc1ccc(Nc2ncnc(Nc3cc(-c4ccco4)n[nH]3)n2)cc1` it was 0.4 to 2.4 µg/mL (≈ 0.987 to 5.92 µM).
`COC(=O)c1ccc(-c2cc(Nc3ncnc(Nc4cccc(C(N)=O)c4)n3)[nH]n2)cc1` showed an IC50 above 4.5 µg/mL.
In turn, `COc1ccc(Nc2ncnc(-n3cccc3)n2)c(OC)c1` registered an IC50 above 4.5 µg/mL.
In the case of `COc1cc(Nc2ncnc(Nc3ccc(N(C)C(C)=O)cc3)n2)cc(OC)c1OC` it was above 4.5 µg/mL; in that of `COc1ccc(Nc2ncnc(Nc3ccc(OC)c(OC)c3)n2)cc1OC`, above 4.5 µg/mL.
In the case of `CC(C)(C)c1cc(Nc2ncnc(Nc3cccc(CC(=O)O)c3)n2)[nH]n1` it was 0.4 to 2.4 µg/mL (≈ 1.09 to 6.53 µM); in that of `Fc1cccc(CNc2nc3ccccc3n2-c2ncnc(Nc3cccc(Cn4ccnn4)c3)n2)c1`, 0.4 to 2.4 µg/mL (≈ 0.812 to 4.87 µM); in that of `Oc1ccc(Nc2ncnc(-c3ccccc3)n2)cc1`, above 4.5 µg/mL.
In the case of `Nc1ncnc(Nc2nc(-c3ccc(Cl)cc3)cs2)n1` it was above 4.5 µg/mL.
For `C#Cc1cccc(Nc2ncnc(-n3c(=O)[nH]c4ccccc43)n2)c1`, the IC50 was in the range of 0.4 to 2.4 µg/mL (≈ 1.22 to 7.31 µM).
In the case of `COc1cc(Nc2ncnc(-c3ccc(NCCCO)nc3)n2)cc(OC)c1OC` it was above 4.5 µg/mL.
In the case of `O=c1[nH]c2ccccc2n1-c1ncnc(Nc2ccc(C(F)(F)F)cc2)n1` it was above 4.5 µg/mL; in that of `COc1cc(Nc2ncnc(-c3cccnc3Nc3cccc4c3CCCC4)n2)cc(OC)c1OC`, above 4.5 µg/mL; in that of `COc1ccc(Nc2ncnc(N(C)c3ccc(Cl)c(Cl)c3)n2)cc1OC`, below 0.4 µg/mL.
As for `COc1cc(C)c(Nc2ncnc(Nc3cc(-c4ccco4)n[nH]3)n2)cc1OC`, the figure is 0.4 to 2.4 µg/mL (≈ 1.02 to 6.1 µM); as for `O=C(O)Cc1cccc(Nc2ncnc(-n3c(NCc4ccccn4)nc4ccccc43)n2)c1`, above 4.5 µg/mL; as for `Nc1nc2ccccc2n1-c1ncnc(Nc2cccnc2)n1`, 2.4 to 3.5 µg/mL (≈ 7.89 to 11.5 µM).
Regarding `COc1ccc(Nc2ncccc2-c2ncnc(Nc3cc(OC)c(OC)c(OC)c3)n2)c(C)c1`, the IC50 is above 4.5 µg/mL.
As for `NC(=O)[C@H](CO)Nc1ncnc(-n2c(=O)[nH]c3ccccc32)n1`, the figure is above 4.5 µg/mL; as for `COc1cc(Br)ccc1Nc1nc2ccccc2n1-c1ncnc(Nc2cc(OC)c(OC)c(OC)c2)n1`, above 4.5 µg/mL; as for `COc1cc(Nc2ncnc(-n3c(NC(C)(C)c4ccccc4)nc4ccccc43)n2)cc(OC)c1OC`, above 4.5 µg/mL.
As for `c1ccc(-c2cc(Nc3ncnc(Nc4ccc5[nH]ncc5c4)n3)[nH]n2)cc1`, the figure is 0.4 to 2.4 µg/mL (≈ 1.08 to 6.5 µM).
Turning to `CCN(CC)c1ccc(Nc2ncnc(N3CCCc4cc(C)ccc43)n2)cc1`, the IC50 was above 4.5 µg/mL.
In the case of `Cc1cccc(Nc2ncnc(N(C)c3cccc(Cl)c3)n2)c1` it was below 0.4 µg/mL; in that of `COc1ccc(Nc2ncnc(Nc3ccc(N4CCCCC4)cc3)n2)cc1OC`, 0.4 to 2.4 µg/mL (≈ 0.984 to 5.9 µM); in that of `CN(c1cccc(Cl)c1)c1ncnc(Nc2ccc3nn(Cc4ccccc4)cc3c2)n1`, below 0.4 µg/mL.
In the case of `CNS(=O)(=O)Cc1ccc(Nc2ncnc(Nc3cc(-c4ccc(C(=O)OC)cc4)n[nH]3)n2)cc1` it was 2.4 to 3.5 µg/mL (≈ 4.85 to 7.08 µM); in that of `c1ccc(COc2cccc(Nc3ncnc(-c4cccs4)n3)c2)cc1`, above 4.5 µg/mL; in that of `COc1cc(Nc2ncnc(-c3c(O)n(C)c4ccccc34)n2)cc(OC)c1OC`, above 4.5 µg/mL.
